This note sets out measurements from PubChem BioAssay (NCI).

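Results reflect a 48-hour exposure of cells in 96-well plates to compound at five concentrations. GI50 marks 50% less growth. TGI: concentration producing complete growth inhibition.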 A value given as a limit tells only on which side of the number the result lay.

Experiment in all cases: growth of human tumour cells (NCI), 48 h
The subject of test [1] is OVCAR-4 ovarian.
The test system of test [2] is SR leukemia.
Test [3] has as its system SF-268 CNS.
For test [4], the system named is DU-145 prostate.
For test [5], the system named is K-562 leukemia.
Test [6] relates to A498 renal.
The subject of test [7] is SNB-19 CNS.
In test [8] the test system is SNB-75 CNS.

On to `COc1cccc(Cn2c(-c3nonc3NC(C)=O)nc3ccccc32)c1`, for which the GI50 in test [1] was 15.6 µM; in test [2] it was 4.14 µM; in test [3], 7.82 µM; in test [4], 3.42 µM; in test [5] it was 4.02 µM; in test [6], 0.426 µM. The GI50 in test [7] is 7.15 µM; in test [8] it was 0.144 µM. The TGI in test [1] was above 100 µM; in test [2], above 100 µM; in test [3], above 100 µM; in test [4] it was 83.9 µM; in test [5] it was above 100 µM; in test [6] it was 6.53 µM. Further, the TGI is above 100 µM in test [7] and 3.85 µM in test [8].
For the compound `O=C(O)c1c[nH]c2c(OCc3ccccc3)c3ccccc3c(O)c2c1=O`, the GI50 in test [1] was 43.6 µM; in test [2], 28.3 µM; in test [3] it was 22.4 µM; in test [4], 21.1 µM; in test [5], 3.2 µM; in test [7], 17.7 µM. Further, the GI50 in test [8] is 19.5 µM. Also, the TGI is above 100 µM in test [1]; 59.6 µM in test [2]; 64 µM in test [3]; 37.2 µM in test [4]; above 100 µM in test [5]; 42.9 µM in test [7]. Also, the TGI in test [8] stood at 43.1 µM.
Turning to `N#C/C(=C1C=C/C(=N\O)C(Cl)=C\1)c1ccccc1`, the GI50 in test [1] is 12.7 µM; in test [2], 1.8 µM; in test [3], 2.19 µM; in test [4] it was 3.32 µM; in test [5], 2.27 µM; in test [6] it was 3.34 µM. Moreover, the GI50 was 22.1 µM in test [7] and 3.5 µM in test [8]. Also, the TGI was determined as 51.5 µM in test [1]; 11.3 µM in test [2]; 14.3 µM in test [3]; 9.47 µM in test [4]; 13.5 µM in test [5]; 64.7 µM in test [6]. The TGI in test [7] is above 100 µM; in test [8] it was 20.5 µM.
In the case of `Cc1c(-c2nnc(-c3ccc(F)cc3)o2)nnn1-c1ccnc2c(C(F)(F)F)cccc12`, the GI50 in test [1] is 21 µM; in test [3] it was 26.7 µM; in test [4], 30.4 µM; in test [5] it was 19.8 µM; in test [7] it was 25.9 µM; in test [8], 19.5 µM. In addition, the TGI was above 100 µM in test [1]; above 100 µM in test [3]; above 100 µM in test [4]; above 100 µM in test [5]; 82.3 µM in test [7]; 61.2 µM in test [8].
On to `O=C(O)CP(=O)(O)O`, for which the TGI in test [1], in test [2], in test [3], in test [4], in test [5] and in test [6] was above 100 µM each time. Also, the TGI in test [7] and in test [8] was above 100 µM throughout.
In the case of `COc1ccc(CCN2CCC(Nc3nc4ccccc4n3Cc3ccc(F)cc3)CC2)cc1`, the GI50 is 1.25 µM in test [1]; 1.58 µM in test [2]; 1.56 µM in test [3]; 1.94 µM in test [4]; 1.77 µM in test [7]; 1.24 µM in test [8]. The TGI in test [1] was found to be 2.57 µM; in test [2] it was 3.83 µM; in test [3], 2.95 µM; in test [4] it was 3.65 µM; in test [7], 3.93 µM; in test [8] it was 2.54 µM.
Consider `Cn1ccnc1C(=O)/C=C/c1ccc(CC(=O)Nc2ccc(F)cc2)cc1`, for which the GI50 is 5.68 µM in test [1]; 0.517 µM in test [2]; 2.89 µM in test [3]; 1.24 µM in test [4]; 0.823 µM in test [5]; 5.65 µM in test [6]. The figures for the GI50 in test [7] and in test [8] were 2.74 µM and 3.74 µM, respectively. The TGI in test [1] is above 25 µM; in test [2], above 25 µM; in test [3], 13.5 µM; in test [4] it was 5.97 µM; in test [5], above 25 µM; in test [6] it was 15.3 µM. Further, the TGI is 7.02 µM in test [7] and above 25 µM in test [8].
Take `N#Cc1c(N)nc(NCc2ccccc2)c(C#N)c1-c1ccccc1Cl`: the GI50 in test [1] is 5.04 µM; in test [2], 10.8 µM; in test [3] it was 12.6 µM; in test [4] it was 21.5 µM; in test [6] it was 19.2 µM; in test [7] it was 23.4 µM. Moreover, in test [8], the GI50 is 10.3 µM. In addition, the TGI was 45.3 µM in test [1]; 32.8 µM in test [2]; 58.5 µM in test [3]; 88.6 µM in test [4]; 46.9 µM in test [6]; above 100 µM in test [7]. Further, the TGI in test [8] turned out to be 48.8 µM.
For the compound `OCC1OC2OC3C(CO)OC(OC4C(CO)OC(OC5C(CO)OC(OC6C(CO)OC(OC7C(CO)OC(OC1C(O)C2O)C(O)C7O)C(O)C6O)C(O)C5O)C(O)C4O)C(O)C3O` (configuration not stated) (tested in a mixture with another compound), the TGI was above 100 µM in test [1]; 34.3 µM in test [2]; above 100 µM in test [3]; above 100 µM in test [4]; above 100 µM in test [5]; above 100 µM in test [6]. The TGI in test [7] and in test [8] was above 100 µM in each case.
Turning to `CC1(C)N=C(N)N=C(N)N1c1cccc(CCCCOc2ccccc2)c1`, the GI50 is 0.441 µM in test [1]; below 0.011 µM in test [2]; 0.0558 µM in test [3]; 0.0626 µM in test [4]; 0.05 µM in test [5]; 1.8 µM in test [6]. Moreover, the GI50 in test [7] was 0.326 µM; in test [8], 0.195 µM. Moreover, the TGI in test [1] is 38.6 µM; in test [2], 20.7 µM; in test [3], 22.9 µM; in test [4], above 100 µM; in test [5], above 100 µM; in test [6], above 81.3 µM. Also, the TGI is above 77.4 µM in test [7] and 22.9 µM in test [8].
